In ChEMBL document CHEMBL1275407, “Treatment of scedosporiosis with voriconazole: clinical experience with 107 patients” (2008):
Values after ≈ are worked out from the molar mass of the structure shown.

What was measured:
Assay type in all cases: functional
Scedosporium apiospermum [1] = test: Antifungal activity against Scedosporium apiospermum isolated from voriconazole treated scedosporiosis patient by broth microdilution method
Lomentospora prolificans [2] = test: Antifungal activity against Scedosporium prolificans isolated from voriconazole treated scedosporiosis patient by broth microdilution method
Lomentospora prolificans [3] = test: Antifungal activity against Scedosporium prolificans isolated from compound treated scedosporiosis patient by broth microdilution method
Scedosporium apiospermum [4] = test: Antifungal activity against Scedosporium apiospermum isolated from compound treated scedosporiosis patient by broth microdilution method

SMILES	MIC50 (Scedosporium apiospermum [1])	MIC90 (Scedosporium apiospermum [1])	MIC50 (Lomentospora prolificans [2])	MIC90 (Lomentospora prolificans [2])	MIC50 (Lomentospora prolificans [3])	MIC90 (Lomentospora prolificans [3])	MIC50 (Scedosporium apiospermum [4])	MIC90 (Scedosporium apiospermum [4])
C[C@@H]1[C@H](O)[C@@H](C)/C=C/C=C/C=C/C=C/C=C/C=C/C=C/[C@H](O[C@@H]2O[C@H](C)[C@@H](O)[C@H](N)[C@@H]2O)C[C@@H]2O[C@](O)(C[C@@H](O)C[C@@H](O)[C@H](O)CC[C@@H](O)C[C@@H](O)CC(=O)O[C@H]1C)C[C@H](O)[C@H]2C(=O)O [AMPHOTERICIN B]	4 µg/mL (≈ 4.33 µM)	> 8 µg/mL	8 µg/mL (≈ 8.66 µM)	16 µg/mL (≈ 17.3 µM)	–	–	–	–
CCC(C)n1ncn(-c2ccc(N3CCN(c4ccc(OCC5COC(Cn6cncn6)(c6ccc(Cl)cc6Cl)O5)cc4)CC3)cc2)c1=O (configuration not stated) [ITRACONAZOLE]	0.5 µg/mL (≈ 0.709 µM)	2 µg/mL (≈ 2.83 µM)	16 µg/mL (≈ 22.7 µM)	16 µg/mL (≈ 22.7 µM)	–	–	–	–
C[C@@H](c1ncncc1F)[C@](O)(Cn1cncn1)c1ccc(F)cc1F [VORICONAZOLE]	–	–	–	–	4 µg/mL (≈ 11.5 µM)	8 µg/mL (≈ 22.9 µM)	0.25 µg/mL (≈ 0.716 µM)	1 µg/mL (≈ 2.86 µM)
